Results on 7 compounds are retold here after US11597724B2, “Herbicidally active 3-phenylisoxazoline-5-carboxamides of tetrahydro and dihydrofuran carboxylic acids and esters” (Bayer Aktiengesellschaft, priority 2017, dated 2023).

Type in all cases: in vivo
The nature of assay [1]: Post-emergence treatment, summary over harmful plants. The settings on record: 504 h, application rate of 0.32 kg of active substance or less per hectare, read-out: herbicidal action, post-emergence treatment (very good herbicidal activity). In outline:
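Greenhouse-grown weeds and crops were sprayed at the one-leaf stage (2–3 weeks post-sowing) with WP or EC formulations plus 0.5% additive at 600 l/ha water. About 3 weeks later, activity was visually rated against untreated controls (100% = dead plants, 0% = like control).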

A further assay concerns Setaria viridis. In words: Pre-emergence herbicidal activity against SETVI. The settings on record: Setaria viridis, 504 h, dosage 80 g/ha. The text has this:
(§1) 1. Pre-Emergence Herbicidal Action and Crop Plant Compatibility Seeds of monocotyledonous and dicotyledonous weed plants and crop plants are placed in plastic or wood fiber pots and covered with soil. The compounds of the invention, formulated in the form of wettable powders (WP) or as emulsion concentrates (EC), are then applied onto the surface of the covering soil as aqueous suspension or emulsion with addition of 0.5% additive at a water application rate of 600 l/ha (converted). After the treatment, the pots are placed in a greenhouse and kept under good growth conditions for the trial plants. After about 3 weeks, the effect of the preparations is scored visually in comparison with untreated controls as percentages. For example, 100% activity=the plants have died, 0% activity=like control plants. POLCO: Polygonum convolvulus SETVI: Setaria viridis

For another assay, the system named is Veronica persica. In words: Post-emergence herbicidal activity against VERPE. The settings on record: Veronica persica, 504 h, dosage 320 g/ha. In outline:
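Greenhouse plants treated at one-leaf stage, 2–3 weeks after sowing, by spraying WP or EC formulations with 0.5% additive at 600 l/ha water. Visual rating about 3 weeks later versus untreated controls (100% = plants dead, 0% = like controls).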

A further assay relates to Polygonum convolvulus. The assay is described as follows: Post-emergence herbicidal activity against POLCO. The following applies: dosage 320 g/ha, rated about 3 weeks after treatment; for pest or weed control at 320 g/ha: Fallopia convolvulus, 504 h. Summed up:
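Greenhouse weeds in sandy loam were sprayed at the one-leaf stage, 2–3 weeks after sowing, with WP or EC formulations plus 0.5% additive at 600 l/ha water. About 3 weeks later, damage was rated visually against untreated controls, where 100% means plants dead and 0% means like control.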

For the next assay, the system named is Avena fatua. In words: Pre-emergence herbicidal activity against AVEFA. The settings on record: Avena fatua, 504 h, dosage 80 g/ha, read-out: Pre-emergence herbicidal activity against AVEVA in % (AVEFA).
Excerpt: as §1, with “AMARE: Amaranthus retroflexus AVEFA: Avena fatua” for “POLCO: Polygonum convolvulus SETVI: Setaria viridis”

In a further assay the test system is Echinochloa crus-galli. In words: Post-emergence herbicidal activity against ECHCG. The following applies: dosage 320 g/ha, rated about 3 weeks after treatment; for pest or weed control at 320 g/ha: Echinochloa crus-galli, 504 h. Summed up:
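Greenhouse pot plants sprayed post-emergence at one-leaf stage (2-3 weeks after sowing) with WP or EC formulations, 0.5% additive, 600 l/ha water. Visual rating about 3 weeks later versus untreated controls: 100% = plants dead, 0% = like control.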

Molecules are shown by their SMILES.

As to `C=C[C@]1(C(=O)N[C@H]2CO[C@@H](C(=O)OC(C)C)C2)CC(c2cc(F)cc(F)c2)=NO1` (mixture of isomers) [I-36, isopropyl cis-4-[[(5S)-3-(3,5-difluorophenyl)-5-vinyl-4H-isoxazole-5-carbonyl]amino]tetrahydrofuran-2-carboxylate], the pest or weed control at 320 g/ha in assay [1] is 80 to 100%; with Veronica persica, 90%; in the assay on Polygonum convolvulus, 80%; with Echinochloa crus-galli, 90%. Moreover, the pest or weed control at 80 g/ha in the assay on Setaria viridis and in the assay with Avena fatua was 100% in each case.

With `CCOC(=O)[C@H]1C[C@@H](NC(=O)C2(C)CC(c3cccc(F)c3)=NO2)CO1` (mixture of isomers) [I-30, ethyl cis-4-[[(5RS)-3-(3-fluorophenyl)-5-methyl-4H-isoxazole-5-carbonyl]amino]tetrahydrofuran-2-carboxylate], the pest or weed control at 320 g/ha in assay [1] was 80 to 100%; with Veronica persica, 80%; with Polygonum convolvulus it was 80%; in the assay on Echinochloa crus-galli, 80%. Further, the pest or weed control at 80 g/ha worked out at 100% with Setaria viridis and 80% in the assay with Avena fatua.

For `C=C[C@]1(C(=O)N[C@H]2CO[C@@H](C(=O)OC)C2)CC(c2cc(F)cc(F)c2)=NO1` (single isomer, unassigned) [I-12], the pest or weed control at 320 g/ha in assay [1] lay in the range of 80 to 100%. In addition, the pest or weed control at 80 g/ha in the assay with Setaria viridis and with Avena fatua was 100% throughout. Moreover, the “Post-emergence herbicidal activity against POLCO in %” value in the assay on Polygonum convolvulus is given as 90%. Further, the “Post-emergence herbicidal activity against ECHCG in %” value with Echinochloa crus-galli is recorded as 90%.

Turning to `COC(=O)C1=C[C@@H](NC(=O)C2(C)CC(c3cccc(F)c3)=NO2)CO1` (stereo partly drawn) [I-46, methyl (3R)-3-[[3-(3-fluorophenyl)-5-methyl-4H-isoxazole-5-carbonyl]amino]-2,3-dihydrofuran-5-carboxylate], the pest or weed control at 320 g/ha in assay [1] was 80 to 100%; in the assay with Veronica persica, 80%; in the assay on Polygonum convolvulus, 80%; in the assay with Echinochloa crus-galli, 100%. Also, the pest or weed control at 80 g/ha with Setaria viridis turned out to be 100%; with Avena fatua, 80%.

Take `C=C[C@]1(C(=O)N[C@H]2CO[C@@H](C(=O)OC)C2)CC(c2cc(F)cc(F)c2)=NO1` (mixture of isomers) [I-10, methyl cis-4-[[(5S)-3-(3,5-difluorophenyl)-5-vinyl-4H-isoxazole-5-carbonyl]amino]tetrahydrofuran-2-carboxylate]: the pest or weed control at 320 g/ha in assay [1] was 80 to 100%; with Veronica persica, 80%; in the assay on Polygonum convolvulus, 80%; with Echinochloa crus-galli, 100%. Further, the pest or weed control at 80 g/ha in the assay with Setaria viridis and in the assay on Avena fatua was 100% in each case.

`COC(=O)[C@H]1C[C@@H](NC(=O)[C@@]2(C)CC(c3cc(F)cc(F)c3)=NO2)CO1` (mixture of isomers) [I-09, methyl cis-4-[[(5R)-3-(3,5-difluorophenyl)-5-methyl-4H-isoxazole-5-carbonyl]amino]tetrahydrofuran-2-carboxylate]: the pest or weed control at 320 g/ha in assay [1] was 80 to 100%; with Veronica persica it was 80%; in the assay with Polygonum convolvulus, 80%; with Echinochloa crus-galli it was 80%. Also, the results for the pest or weed control at 80 g/ha in the assay with Setaria viridis and in the assay with Avena fatua were 80% and 90%, respectively.

Take `C=CC1(C(=O)N[C@H]2CO[C@@H](C(=O)O)C2)CC(c2cc(F)cc(F)c2)=NO1` (relative stereo) [I-21, cis-4-[[3-(3,5-difluorophenyl)-5-vinyl-4H-isoxazole-5-carbonyl]amino]tetrahydrofuran-2-carboxylic acid]: the values for the pest or weed control at 320 g/ha (in assay [1]; with Veronica persica; with Echinochloa crus-galli) were 80 to 100%, 100% and 80%, respectively. In addition, the pest or weed control at 80 g/ha with Setaria viridis and in the assay on Avena fatua was 90% throughout.
